The values below come from patent US6949654B2, “N-alkyl-N-phenylhydroxylamine compounds containing metal chelating groups, their preparation and their therapeutic uses” (Sam-Sung Electronics Co., Ltd., priority 2001, dated 2005).

Series [1] deals with soybean phosphatidylcholine liposome. Briefly: Inhibition of lipid peroxidation of a multilayer liposome (TBA method). The class given is biochemical. Particulars: lipid peroxidation of liposome started with FeCl2, 37° C. 15 minutes, absorbance at 532 nm; read-out: Inhibitor Concentration (IC50). The procedure: The compounds of the present invention were tested for antioxidant effect in terms of the repression of the radical chain reaction of a multilayer liposome.
The liposome was prepared as followings: 30 mg of commercially available soybean phosphatidylcholine (PC, Sigma Chemical Co., U.S.A.) was dissolved in 1 mL of ethanol, and 200 μL of the ethanol/PC solution was added to 10 mL of 10 mM Tris buffer including 50 mM NaCl (pH 7.0) with stirring.
The ability of a compound to inhibit oxidation of the liposome was evaluated as followings: To 400 μL of the liposomes were added the test compound (in buffer or ethanol) and histidine-FeCl3 (167:33 μM final). Oxidation was initiated by the addition of FeCl2 (33 μM final prepared in nitrogen purged water). The mixtures was shaken at 37° C. for 15 minutes. Thereafter, tubes were treated with 1 mL of 0.67% thiobabituric acid (TBA):10% trichloroacetic acid (2:1, v/v) in 0.25 N HCl solution, containing 1.5% (v/v) t-butylhydroxytoluene (BHT) to terminate oxidation. The aliquots were heated to 100° C. for 20 minutes. After ice cooling, 1 mL of chloroform was added to 1 mL supernatant from tubes and tubes were centrifuged. The absorbances of the resulting supernatant were measured at 532 nm (see: Table 1 below).

A short description of series [2]: Acute toxicity LD50 in rats. The note with it: rat, in vivo.
The test system of series [3] is ischemic neuronal degeneration. Put plainly: Protection of cell damage by ischemia (in vivo). More on the design: species or system Mongolian gerbils (Meriones unguiculatus). The note with it: 60 mg/kg P.O. 30 minutes after ischemic injury (post-treated), 5 min carotid occlusion, 4 days reperfusion, hippocampus. The procedure:
Male Mongolian gerbils (Meriones unguiculatus) weighing 80-88 g were used in the present study. Each animal was medicated P.O. with vehicle, Ebselen or various test compounds (60 mg/kg in 10% DMSO), after 30 minutes ischemic injury, respectively. 20 animals were allotted into every group. The animals were placed under general anesthesia with a mixture of 2.5% isoflurane in 33% oxygen and 67% nitrous oxide. A midline ventral incision was made in the neck. Both common carotid arteries were isolated, freed of nerve fibers, and occluded using nontraumatic aneurysm clips. Complete interruption of blood flow was confirmed by observing the central artery in eyeballs using ophthalmoscope. After five minutes of occlusion, the aneurysm clips were removed from both common carotid arteries. Restoration of blood flow (reperfusion) was observed directly under the microscope. Sham-operated controls were subjected to the same surgical procedures except that common carotid arteries were not occluded. Body temperature was monitored and maintained at 37° C.±0.5° C. during surgery and during the immediate postoperative period until the animals recovered fully from anesthesia. […]
Images of staining in the hippocampus of each animal were captured with an Applescanner. […] All data obtained from the quantitative data were analyzed using one-way ANOVA to determine statistical significance. […]

In another series the test system is rats. Particulars: oral administration; cited from earlier work.
The subject of a further series is mice. Particulars: oral administration; cited from earlier work.
The conditions of series [4]: even in the presence of an excess of glutathione (GSH); cited from earlier work.

A value given as a limit tells only on which side of the number the result lay.

As to `CC(C)(C)N(O)c1ccc(C(=O)Nc2ccccn2)cc1` [Example 2, 4-[N-(tert-butyl)-N-hydroxyamino]-N-pyridin-2-yl-benzamide], the IC50 in series [1] stood at 4.3 µM.

In the case of `CC(C)(C)N(O)c1ccc(C(=O)Nc2ccc(O)c3ncccc23)cc1` [Example 4, 4-[N-(tert-butyl)-N-hydroxyamino]-N-(8-hydroxyquinolin-5-yl)-benzamide], in series [1], the IC50 stood at 61.9 µM.

Regarding “4-[N-(tert-butyl)-N-hydroxyamino]-N-pyridin-2-yl-methyl-benzamide [Example 3]”, the IC50 in series [1] was determined as 11.1 µM.

Take `Cc1c(C)c2c(c(C)c1O)CCC(C)(C(=O)O)O2` (stereo not drawn) [Trolox, reference compound]: in series [1], the IC50 was determined as 10.2 µM.

Regarding `CC(C)(C)N(O)c1ccc(C(=O)Nc2nccs2)cc1` [Example 1, 4-[N-(tert-butyl)-N-hydroxyamino]-N-thiazol-2-yl-benzamide], the IC50 in series [1] came out at 1.44 µM. In addition, the LD50 in series [2] (ip, intraperitoneal administration in rats) was not below 750 mg/kg; in series [2] (oral administration in rats), not below 7000 mg/kg. Further, the “protective effect against ischemic neuronal degeneration” value in series [3] is recorded as 81%.

As for `O=c1c2ccccc2[se]n1-c1ccccc1` [Ebselen], the “protective effect against ischemic neuronal degeneration” value in series [3] is on record as 59%. The LD50 with rats and with mice was ≥ 6,810 mg/kg throughout. The solubility in water entry in series [4] is listed as “very little soluble in water”.
